Measurements: patent publication US20260265233A1, “BENZOTHIOPHENE DERIVATIVES AS RXFP1 AGONISTS” (BRISTOL-MYERS SQUIBB COMPANY, priority 2021, published 2026)

Target: T1, human RXFP1 (Homo sapiens, UniProt Q9HBX9)
T1 construct: expressed in transfected cells
T1 sequence (Q9HBX9 1-757): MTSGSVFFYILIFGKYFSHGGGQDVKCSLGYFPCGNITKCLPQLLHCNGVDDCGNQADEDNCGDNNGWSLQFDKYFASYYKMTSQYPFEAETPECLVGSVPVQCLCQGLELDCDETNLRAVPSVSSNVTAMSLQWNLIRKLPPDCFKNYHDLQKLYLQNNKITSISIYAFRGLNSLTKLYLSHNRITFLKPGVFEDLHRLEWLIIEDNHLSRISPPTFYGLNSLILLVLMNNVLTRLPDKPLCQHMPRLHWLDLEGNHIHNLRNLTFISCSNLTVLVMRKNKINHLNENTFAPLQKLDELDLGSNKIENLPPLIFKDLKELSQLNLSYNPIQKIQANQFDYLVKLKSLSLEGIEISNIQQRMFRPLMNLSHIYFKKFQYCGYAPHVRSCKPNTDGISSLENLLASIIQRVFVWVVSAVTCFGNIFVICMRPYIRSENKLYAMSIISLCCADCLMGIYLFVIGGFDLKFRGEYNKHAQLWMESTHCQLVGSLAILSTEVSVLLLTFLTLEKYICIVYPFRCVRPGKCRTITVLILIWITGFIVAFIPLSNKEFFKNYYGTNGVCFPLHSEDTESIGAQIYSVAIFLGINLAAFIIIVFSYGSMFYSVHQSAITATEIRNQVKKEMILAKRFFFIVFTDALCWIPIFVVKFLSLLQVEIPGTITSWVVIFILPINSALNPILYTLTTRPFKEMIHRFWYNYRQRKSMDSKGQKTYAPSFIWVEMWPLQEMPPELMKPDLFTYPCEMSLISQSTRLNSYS
Assay: hRXFP1 HEK293 cAMP assay (HTRF)
Assay type: cell-based
Details: HEK293 cells stably expressing human RXFP1; 30 min at rt; intracellular cAMP by HTRF
Experimental: RXFP1 Cyclic Adenosine Monophosphate (cAMP) Assays. Human embryonic kidney cells 293 (HEK293) cells and HEK293 cells stably expressing human RXFP1, were cultured in MEM medium supplemented with 10% qualified FBS, and 300 μg/ml hygromycin (Life Technologies). Cells were dissociated and suspended in assay buffer. The assay buffer was HBSS buffer (with calcium and magnesium) containing 20 mM HEPES, 0.05% BSA, and 0.5 mM IBMX. Cells (3000 cells per well, except 1500 cell per well for HEK293 cells stably expressing human RXFP1) were added to 384-well Proxiplates (Perkin-Elmer). Cells were immediately treated with test compounds in DMSO (2% final) at final concentrations in the range of 0.010 nM to 50 μM. Cells were incubated for 30 min at rt. The level of intracellular cAMP was determined using the HTRF HiRange cAMP assay reagent kit (Cisbio) according to manufacturer's instructions. Solutions of cryptate conjugated anti-cAMP and d2 fluorophore-labelled cAMP were made in a supplied lysis buffer separately. Upon completion of the reaction, the cells were lysed with equal volume of the d2-cAMP solution and anti-cAMP solution. After a 1 h rt incubation, time-resolved fluorescence intensity was measured using the Envision (Perkin-Elmer) at 400 nm excitation and dual emission at 590 nm and 665 nm. A calibration curve was constructed with an external cAMP standard at concentrations ranging from 2.7 μM to 0.1 pM by plotting the fluorescent intensity ratio from 665 nm emission to the intensity from the 590 nm emission against cAMP concentrations. The potency and activity of a compound to […] cAMP production was then determined by fitting to a 4-parametric logistic equation from a plot of cAMP level versus compound concentrations.
The examples disclosed below were tested in the human RXFP1 (hRXFP1) HEK293 cAMP assay described above and found to have agonist activity.

Row | EC50 [µM] | SMILES
1 | 0.0979 | COc1ccc(C2CCN(C(=O)C(C)(C)O)C2)cc1C(=O)Nc1c(C(=O)Nc2ccc(F)c(C(F)(F)F)c2)sc2cc(C(F)(F)F)ccc12 (stereo not drawn) [Example 140, N-(4-fluoro-3-(trifluoromethyl)phenyl)-3-(5-(1-(2-hydroxy-2-methylpropanoyl)pyrrolidin-3-yl)-2-methoxy-benzamido)-6-(trifluoromethyl) benzo[b] thiophene-2-carboxamide]
2 | 0.65 | CCS(=O)(=O)Nc1cncc(-c2ccc(OC)c(C(=O)Nc3c(C(=O)Nc4ccc(F)c(C(F)(F)F)c4)sc4cc(C(F)(F)F)ccc34)c2)c1 [Example 116, 3-(5-(5-(ethylsulfonamido)pyridin-3-yl)-2-methoxy-benzamido)-N-(4-fluoro-3-(trifluoromethyl)phenyl)-6-(trifluoromethyl) benzo[b] thiophene-2-carboxamide]
3 | 2.08 | COc1ccc(C2CC3(C2)CN(C(=O)CN(C)C)C3)cc1C(=O)Nc1c(C(=O)Nc2ccc(F)c(C(F)(F)F)c2)sc2cc(C(F)(F)F)ccc12 [Example 206, 3-(5-(2-(dimethylglycyl)-2-azaspiro[3.3]heptan-6-yl)-2-methoxy-benzamido)-N-(4-fluoro-3-(trifluoromethyl)phenyl)-6-(trifluoromethyl) benzo[b] thiophene-2-carboxamide]
4 | 0.619 | COc1ccc(C2CCN(C3COC3)C2)cc1C(=O)Nc1c(C(=O)Nc2ccc(F)c(C(F)(F)F)c2)sc2cc(C(F)(F)F)ccc12 (stereo not drawn) [Example 142, N-(4-fluoro-3-(trifluoromethyl)phenyl)-3-(2-methoxy-5-(1-(oxetan-3-yl)pyrrolidin-3-yl)benzamido)-6-(trifluoromethyl) benzo[b] thiophene-2-carboxamide]
5 | 0.165 | COc1ccc(C2CCCN(C(=O)C(C)(C)O)C2)cc1C(=O)Nc1c(C(=O)Nc2ccc(F)c(C(F)(F)F)c2)sc2cc(C(F)(F)F)ccc12 (stereo not drawn) [Example 92, N-[4-fluoro-3-(trifluoromethyl)phenyl]-3-{5-[1-(2-hydroxy-2-methylpropanoyl)piperidin-3-yl]-2-methoxy-benzamido}-6-(trifluoromethyl)-1-benzothiophene-2-carboxamide]
6 | 2.29 | COc1ccc(C(=O)NCCO)cc1C(=O)Nc1c(C(=O)Nc2ccc(F)c(C(F)(F)F)c2)sc2cc(C(F)(F)F)ccc12 [Example 217, N3-(2-((4-fluoro-3-(trifluoromethyl)phenyl)carbamoyl)-6-(trifluoromethyl)benzo[b]thiophen-3-yl)-N1-(2-hydroxyethyl)-4-methoxy-isophthalamide]
7 | 0.408 | COc1ccc(C2=NOC3(CCN(C(=O)CO)C3)C2)cc1C(=O)Nc1c(C(=O)Nc2ccc(F)c(C(F)(F)F)c2)sc2cc(C(F)(F)F)ccc12 (stereo not drawn) [Example 278, N-[4-fluoro-3-(trifluoromethyl)phenyl]-3-{5-[7-(2-hydroxyacetyl)-1-oxa-2,7-diazaspiro[4.4]non-2-en-3-yl]-2-methoxy-benzamido}-6-(trifluoromethyl)-1-benzothiophene-2-carboxamide]
8 | 2.54 | COc1ccc(S(=O)(=O)N2CCC[C@@H](N)C2)cc1C(=O)Nc1c(C(=O)Nc2ccc(F)c(C(F)(F)F)c2)sc2cc(C(F)(F)F)ccc12 [Example 30, (R)-3-(5-((3-aminopiperidin-1-yl)sulfonyl)-2-methoxybenzamido)-N-(4-fluoro-3-(trifluoromethyl)phenyl)-6-(trifluoromethyl) benzo[b]thiophene-2-carboxamide]
9 | 1.15 | COc1ccc(C2CCCN(CCS(C)(=O)=O)C2)cc1C(=O)Nc1c(C(=O)Nc2ccc(F)c(C(F)(F)F)c2)sc2cc(C(F)(F)F)ccc12 (single isomer, unassigned) [Example 86, N-(4-fluoro-3-(trifluoromethyl)phenyl)-3-(2-methoxy-5-(1-(2-(methylsulfonyl)ethyl)piperidin-3-yl)benzamido)-6-(trifluoromethyl) benzo[b] thiophene-2-carboxamide]
10 | 0.918 | COc1ccc(N2CCCC(C(C)(C)O)C2)cc1C(=O)Nc1c(C(=O)Nc2ccc(F)c(C(F)(F)F)c2)sc2cc(C(F)(F)F)ccc12 (single isomer, unassigned) [Example 107, N-(4-fluoro-3-(trifluoromethyl)phenyl)-3-(5-(3-(2-hydroxypropan-2-yl)piperidin-1-yl)-2-methoxy-benzamido)-6-(trifluoromethyl) benzo[b] thiophene-2-carboxamide]
11 | 0.279 | COc1ccc(C(=O)N2CCC(CO)CC2)cc1C(=O)Nc1c(C(=O)Nc2ccc(F)c(C(F)(F)F)c2)sc2cc(C(F)(F)F)ccc12 [Example 176, N-(4-fluoro-3-(trifluoromethyl)phenyl)-3-(5-(4-(hydroxymethyl)piperidine-1-carbonyl)-2-methoxy-benzamido)-6-(trifluoromethyl) benzo[b] thiophene-2-carboxamide]
12 | 0.743 | COc1ccc(C2CCCC(NC3COC3)C2)cc1C(=O)Nc1c(C(=O)Nc2ccc(F)c(C(F)(F)F)c2)sc2cc(C(F)(F)F)ccc12 (single isomer, unassigned) [Example 60, N-(4-fluoro-3-(trifluoromethyl)phenyl)-3-(2-methoxy-5-(3-(oxetan-3-ylamino)cyclohexyl)benzamido)-6-(trifluoromethyl) benzo[b] thiophene-2-carboxamide]
13 | 0.32 | COc1ccc(-c2cc(C(=O)O)ccc2F)cc1C(=O)Nc1c(C(=O)Nc2ccc(F)c(C(F)(F)F)c2)sc2cc(Cl)ncc12 [Example 201, 3′-((6-chloro-2-((4-fluoro-3-(trifluoromethyl)phenyl)carbamoyl)thieno[3,2-c]pyridin-3-yl)carbamoyl)-6-fluoro-4′-methoxy-[1,1′-biphenyl]-3-carboxylic acid]
14 | 0.724 | COc1ccc(C2=NOC3CNCC23)cc1C(=O)Nc1c(C(=O)Nc2ccc(F)c(C(F)(F)F)c2)sc2cc(C(F)(F)F)ccc12 (stereo not drawn) [Example 246, N-(4-fluoro-3-(trifluoromethyl)phenyl)-3-(2-methoxy-5-(3a,5,6,6a-tetrahydro-4H-pyrrolo[3,4-d]isoxazol-3-yl)benzamido)-6-(trifluoromethyl) benzo[b] thiophene-2-carboxamide]
15 | 0.532 | COc1ccc(C2=NOC3(CCN(C(=O)C(C)(C)O)CC3)C2)cc1C(=O)Nc1c(C(=O)Nc2ccc(F)c(C(F)(F)F)c2)sc2cc(C(F)(F)F)ccc12 [Example 270, N-(4-fluoro-3-(trifluoromethyl)phenyl)-3-(5-(8-(2-hydroxy-2-methylpropanoyl)-1-oxa-2,8-diazaspiro[4.5]dec-2-en-3-yl)-2-methoxy-benzamido)-6-(trifluoromethyl) benzo[b] thiophene-2-carboxamide]
16 | 0.236 | COc1ccc(-c2cccc(NS(C)(=O)=O)c2)cc1C(=O)Nc1c(C(=O)Nc2ccc(F)c(C(F)(F)F)c2)sc2cc(C(F)(F)F)ccc12 [Example 123, N-(4-fluoro-3-(trifluoromethyl)phenyl)-3-(4-methoxy-3′-(methylsulfon-amido)-[1,1′-biphenyl]-3-carboxamido)-6-(trifluoromethyl) benzo[b] thiophene-2-carboxamide]
17 | 2.02 | COc1ccc(N2CCCC(C(=O)NCC(C)(C)O)C2)cc1C(=O)Nc1c(C(=O)Nc2ccc(F)c(C(F)(F)F)c2)sc2cc(C(F)(F)F)ccc12 (single isomer, unassigned) [Example 8, 1-(3-((2-((4-fluoro-3-(trifluoromethyl)phenyl)carbamoyl)-6-(trifluoromethyl)benzo[b]thiophen-3-yl)carbamoyl)-4-methoxyphenyl)-N-(2-hydroxy-2-methylpropyl) piperidine-3-carboxamide]
18 | 0.4 | COc1ccc(CCCO)cc1C(=O)Nc1c(C(=O)Nc2ccc(F)c(C(F)(F)F)c2)sc2cc(Cl)ncc12 [Example 200, 6-chloro-N-(4-fluoro-3-(trifluoromethyl)phenyl)-3-(5-(3-hydroxypropyl)-2-methoxy-benzamido) thieno[3,2-c]pyridine-2-carboxamide]
